Experimental data: paper PMC3472523 (Journal of the American Chemical Society, 2012)
Residues, ends and D or L forms follow the SMILES beside them.

Experiments:
Mcl-1 [1] = biological target: T1, Mcl-1 (Mus musculus, UniProt P97287); assay: Competitive fluorescence polarization; assay type: binding; conditions: competitive FP assay
[2] = tested on: Mcl-1-overexpressing U937 cells; conditions: for Activity in cell viability assay: U937 cells
Bcl-2 = conditions: cited from earlier work
Bcl-xL [3] = biological target: T2, Bcl-xL (Homo sapiens, UniProt Q07817); conditions: cited from earlier work
Mcl-1 [4] = biological target: T1, Mcl-1; conditions: cited from earlier work
Mcl-1 [5] = biological target: T1, Mcl-1; assay: Direct FP binding assay of fluorescein-conjugated peptides; conditions: read-out: Kd toward Mcl-1, N-terminal fluorescein-conjugated peptides
Bcl-xL [6] = biological target: T2, Bcl-xL; assay: as above
Stability in mouse serum = assay type: in vitro ADME; conditions: for half-life: mouse
[7] = Far-UV CD measurement of percent helicity; assay type: physicochemical; conditions: for Percent helicity: 50 μM in ACN/H2O (1:1), calculated from [θ]222

T1 sequence (P97287 whole entry): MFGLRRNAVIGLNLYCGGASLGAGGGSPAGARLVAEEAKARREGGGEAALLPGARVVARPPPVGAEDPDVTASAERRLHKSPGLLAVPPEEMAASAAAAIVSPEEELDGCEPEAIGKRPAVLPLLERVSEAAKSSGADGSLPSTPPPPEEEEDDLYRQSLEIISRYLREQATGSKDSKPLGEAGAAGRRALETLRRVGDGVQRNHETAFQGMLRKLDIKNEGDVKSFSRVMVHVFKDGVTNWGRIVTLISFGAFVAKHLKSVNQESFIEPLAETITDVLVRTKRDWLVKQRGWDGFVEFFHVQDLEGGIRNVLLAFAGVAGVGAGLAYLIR
T2 sequence (Q07817 whole entry, species assumed): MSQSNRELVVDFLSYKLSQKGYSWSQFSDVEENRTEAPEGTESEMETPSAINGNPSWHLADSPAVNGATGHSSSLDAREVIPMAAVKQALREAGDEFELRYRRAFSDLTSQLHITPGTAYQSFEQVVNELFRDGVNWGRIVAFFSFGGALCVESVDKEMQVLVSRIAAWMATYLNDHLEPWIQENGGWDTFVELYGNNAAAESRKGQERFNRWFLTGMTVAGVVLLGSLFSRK

Increase in inhibitory activity compared to parent Noxa peptide (Mcl-1 [1]) [fold]	half-life (Stability in mouse serum) [h]	Percent helicity [7] [%]	Increase in stability in mouse serum relative to linear Noxa peptide (Stability in mouse serum) [fold]	Structure (SMILES)	Activity in cell viability assay ([2]; 20 μM peptide, 48 hours)	other results
65	–	–	–	CC[C@H](C)[C@@H]1NC(=O)[C@H](CCCNC(=N)N)NC(=O)[C@H](CCCNC(=N)N)NC(=O)[C@H](CC(C)C)NC(=O)[C@@H](NC(=O)[C@H](C)NC(=O)[C@H](C)NC(C)=O)CSCc2ccc(cc2)-c2ccc(cc2)CSC[C@@H](C(=O)N[C@H](C(=O)N[C@@H](CC(N)=O)C(=O)N[C@@H](CC(C)C)C(=O)N[C@@H](CCCNC(=N)N)C(=O)N[C@@H](CCC(N)=O)C(=O)N[C@@H](CCCCN)C(=O)N[C@@H](CC(C)C)C(=O)N[C@@H](CC(C)C)C(=O)N[C@@H](CC(N)=O)C(N)=O)C(C)C)NC(=O)[C@H](CC(=O)O)NC(=O)CNC1=O [compound 1]	no activity	–
12	–	–	–	CC[C@H](C)[C@@H]1NC(=O)[C@H](CCCNC(=N)N)NC(=O)[C@H](CCCNC(=N)N)NC(=O)[C@H](CC(C)C)NC(=O)[C@H](NC(=O)[C@H](C)NC(=O)[C@H](C)NC(C)=O)CSCc2ccc(cc2)-c2ccc(cc2)CSC[C@@H](C(=O)N[C@H](C(=O)N[C@@H](CC(N)=O)C(=O)N[C@@H](CC(C)C)C(=O)N[C@@H](CCCNC(=N)N)C(=O)N[C@@H](CCC(N)=O)C(=O)N[C@@H](CCCCN)C(=O)N[C@@H](CC(C)C)C(=O)N[C@@H](CC(C)C)C(=O)N[C@@H](CC(N)=O)C(N)=O)C(C)C)NC(=O)[C@H](CC(=O)O)NC(=O)CNC1=O [compound 2]	no activity	–
–	–	–	–	CN(C)CC[C@H](CSc1ccccc1)Nc1ccc(S(=O)(=O)NC(=O)c2ccc(N3CCN(Cc4ccccc4-c4ccc(Cl)cc4)CC3)cc2)cc1[N+](=O)[O-] [ABT-737]	–	Binding affinity to Bcl-2 (Bcl-2): subnanomolar affinity; Binding affinity to Bcl-xL (Bcl-xL [3]): subnanomolar affinity; Binding to Mcl-1 (Mcl-1 [4]): poorly
–	21.2 ± 2.6	52	121	CC[C@H](C)[C@@H]1NC(=O)[C@H](C)NC(=O)[C@H](CCCNC(=N)N)NC(=O)[C@H](CC(C)C)NC(=O)[C@H](NC(=O)[C@H](C)N(C)C(=O)[C@H](C)N(C)C(=O)OC)CSCc2ccc(cc2)-c2ccc(cc2)CSC[C@@H](C(=O)N[C@H](C(=O)N[C@@H](CC(N)=O)C(=O)N[C@@H](CC(C)C)C(=O)N[C@@H](C)C(=O)N[C@@H](CCC(N)=O)C(=O)N[C@@H](C)C(=O)N[C@@H](CC(C)C)C(=O)N[C@@H](CC(C)C)C(=O)N[C@@H](CC(N)=O)C(N)=O)C(C)C)NC(=O)[C@H](CC(=O)O)NC(=O)CNC1=O [compound 8] (HELM PEPTIDE1{[COC(=O)[*:2]].[meA].[meA].[dC].L.R.A.I.G.D.C.V.N.L.A.Q.A.L.L.N.[am]}|CHEM1{[c1cc(-c2ccc(C[*:2])cc2)ccc1C[*:1]]}$PEPTIDE1,CHEM1,4:R3-1:R1|PEPTIDE1,CHEM1,11:R3-1:R2$$$V2.0)	–	EC50 ([2]; 48 h): 13400 nM
–	31.6 ± 2.2	66	180	CC[C@H](C)[C@@H]1NC(=O)[C@H](C)NC(=O)[C@H](CCCNC(=N)N)NC(=O)[C@H](CC(C)C)NC(=O)[C@H](NC(=O)[C@H](C)NC(=O)[C@H](C)NC(C)=O)CSCc2ccc(cc2)-c2ccc(cc2)CSC[C@@H](C(=O)N[C@H](C(=O)N[C@@H](CC(N)=O)C(=O)N[C@@H](CC(C)C)C(=O)N[C@@H](C)C(=O)N[C@@H](CCC(N)=O)C(=O)N[C@@H](C)C(=O)N[C@@H](CC(C)C)C(=O)N[C@@H](CC(C)C)C(=O)N[C@@H](CC(N)=O)C(N)=O)C(C)C)NC(=O)[C@H](CC(=O)O)NC(=O)CNC1=O [compound 5] (HELM PEPTIDE1{[ac].A.A.[dC].L.R.A.I.G.D.C.V.N.L.A.Q.A.L.L.N.[am]}|CHEM1{[c1cc(-c2ccc(C[*:2])cc2)ccc1C[*:1]]}$PEPTIDE1,CHEM1,4:R3-1:R1|PEPTIDE1,CHEM1,11:R3-1:R2$$$V2.0)	–	Increase in helicity, 5 compared to 2 [7]: more than twofold

Structure (SMILES)	Increase in inhibitory activity compared to parent Noxa peptide (Mcl-1 [1]) [fold]	half-life (Stability in mouse serum) [h]	Percent helicity [7] [%]	Increase in stability in mouse serum relative to linear Noxa peptide (Stability in mouse serum) [fold]	Activity in cell viability assay ([2]; 20 μM peptide, 48 hours)	other results
CC[C@H](C)[C@H](NC(=O)[C@H](CCCNC(=N)N)NC(=O)[C@H](CCCNC(=N)N)NC(=O)[C@H](CC(C)C)NC(=O)[C@H](CCC(N)=O)NC(=O)[C@H](C)NC(=O)[C@H](C)NC(C)=O)C(=O)NCC(=O)N[C@@H](CC(=O)O)C(=O)N[C@@H](CCCCN)C(=O)N[C@H](C(=O)N[C@@H](CC(N)=O)C(=O)N[C@@H](CC(C)C)C(=O)N[C@@H](CCCNC(=N)N)C(=O)N[C@@H](CCC(N)=O)C(=O)N[C@@H](CCCCN)C(=O)N[C@@H](CC(C)C)C(=O)N[C@@H](CC(C)C)C(=O)N[C@@H](CC(N)=O)C(N)=O)C(C)C [Noxa, reference compound]	–	0.175 ± 0.0383	–	–	no activity	Kd (Mcl-1 [5]): 6.7 ± 1 nM; Kd (Bcl-xL [6]): > 1000 nM; Cell viability ([2]; ATP assay, U937 cells in RPMI1640 with 5% FBS, 20 μM peptide, 48 hours): 97.6±0.9%
